Key:
Histone deacetylase 9 = Histone deacetylase 9 (Homo sapiens, UniProt Q9UKV0); experiment: Inhibition of HDAC9 (unknown origin) using Boc-Lys(trifluoroacetyl)-AMC fluorogenic acetylated peptide substrate by fluorometric assay
[1] = target: T1, Protein deacetylase HDAC6 (Homo sapiens, UniProt Q9UBN7); experiment: Inhibition of HDAC6 (unknown origin) using RHKK(Ac) fluorogenic acetylated peptide substrate by fluorometric assay
T1 sequence (Q9UBN7 whole entry): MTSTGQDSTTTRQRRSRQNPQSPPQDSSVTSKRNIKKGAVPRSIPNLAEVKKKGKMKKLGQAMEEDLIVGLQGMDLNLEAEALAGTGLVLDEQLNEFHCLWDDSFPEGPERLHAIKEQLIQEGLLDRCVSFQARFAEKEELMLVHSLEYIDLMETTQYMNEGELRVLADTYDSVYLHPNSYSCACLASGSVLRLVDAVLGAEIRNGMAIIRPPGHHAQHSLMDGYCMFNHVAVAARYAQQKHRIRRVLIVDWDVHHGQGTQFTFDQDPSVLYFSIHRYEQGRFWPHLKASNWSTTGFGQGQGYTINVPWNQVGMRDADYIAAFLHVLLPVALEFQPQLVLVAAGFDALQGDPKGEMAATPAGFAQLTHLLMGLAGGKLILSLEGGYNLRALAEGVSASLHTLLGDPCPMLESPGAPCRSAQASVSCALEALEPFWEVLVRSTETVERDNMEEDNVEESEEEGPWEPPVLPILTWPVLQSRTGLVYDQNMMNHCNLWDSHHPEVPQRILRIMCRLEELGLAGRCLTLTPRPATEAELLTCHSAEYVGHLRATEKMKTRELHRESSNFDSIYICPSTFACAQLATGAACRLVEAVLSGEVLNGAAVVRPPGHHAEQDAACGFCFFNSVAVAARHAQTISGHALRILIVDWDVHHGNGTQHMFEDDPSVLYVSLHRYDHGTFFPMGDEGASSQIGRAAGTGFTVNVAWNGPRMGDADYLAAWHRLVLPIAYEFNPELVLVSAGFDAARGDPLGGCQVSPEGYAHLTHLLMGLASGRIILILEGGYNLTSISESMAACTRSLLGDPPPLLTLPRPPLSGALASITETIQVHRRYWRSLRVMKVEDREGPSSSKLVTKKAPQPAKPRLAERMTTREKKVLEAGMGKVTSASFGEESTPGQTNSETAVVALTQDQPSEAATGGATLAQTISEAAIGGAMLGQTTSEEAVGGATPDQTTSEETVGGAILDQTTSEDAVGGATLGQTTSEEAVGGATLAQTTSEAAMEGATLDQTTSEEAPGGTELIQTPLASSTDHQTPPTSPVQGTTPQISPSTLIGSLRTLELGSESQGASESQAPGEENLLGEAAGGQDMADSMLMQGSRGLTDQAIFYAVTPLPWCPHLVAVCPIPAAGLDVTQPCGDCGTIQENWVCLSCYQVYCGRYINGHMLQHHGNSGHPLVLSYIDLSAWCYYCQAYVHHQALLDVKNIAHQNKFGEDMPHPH

Histone deacetylase 4 = Histone deacetylase 4 (Homo sapiens, UniProt P56524); experiment: Inhibition of HDAC4 (unknown origin) using Boc-Lys(trifluoroacetyl)-AMC fluorogenic acetylated peptide substrate by fluorometric assay
Histone deacetylase 5 = Histone deacetylase 5 (Homo sapiens, UniProt Q9UQL6); experiment: Inhibition of HDAC5 (unknown origin) using Boc-Lys(trifluoroacetyl)-AMC fluorogenic acetylated peptide substrate by fluorometric assay
cells = assay type: functional, cell-based; details: Homo sapiens, IR-K562
Histone deacetylase 8 = target: T2, Histone deacetylase 8 (Homo sapiens, UniProt Q9BY41); experiment: Inhibition of HDAC8 (unknown origin) using RHK(Ac)K(Ac) fluorogenic acetylated peptide substrate by fluorometric assay
T2 sequence (Q9BY41 whole entry): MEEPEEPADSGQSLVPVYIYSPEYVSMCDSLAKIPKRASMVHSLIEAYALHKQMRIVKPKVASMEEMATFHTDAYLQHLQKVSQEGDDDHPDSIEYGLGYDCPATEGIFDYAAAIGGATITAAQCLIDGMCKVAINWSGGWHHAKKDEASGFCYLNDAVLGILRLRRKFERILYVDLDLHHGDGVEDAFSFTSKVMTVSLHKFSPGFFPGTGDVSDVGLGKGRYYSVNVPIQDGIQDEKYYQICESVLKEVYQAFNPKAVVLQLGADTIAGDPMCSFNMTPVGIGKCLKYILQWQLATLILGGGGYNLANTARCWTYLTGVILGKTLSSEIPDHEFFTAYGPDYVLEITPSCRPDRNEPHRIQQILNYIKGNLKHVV

U-937 = experiment: cells; assay type: functional, cell-based; details: Homo sapiens
Histone deacetylase 1 = Histone deacetylase 1 (Homo sapiens, UniProt Q13547); experiment: Inhibition of HDAC1 (unknown origin) using RHKK(Ac) fluorogenic acetylated peptide substrate by fluorometric assay
K562 = experiment: cells; assay type: functional, cell-based; details: Homo sapiens
Histone deacetylase 2 = Histone deacetylase 2 (Homo sapiens, UniProt Q92769)
THP-1 = experiment: cells; assay type: functional, cell-based; details: Homo sapiens
[2] = Cytotoxicity against HEK293 cells assessed as reduction in cell viability; assay type: cell-based; details: human
in vitro [3] = details: human, HEK293 cells (CC50) versus THP1 cells (IC50)
in vitro [4] = details: human, HEK293 cells (CC50) versus U937 cells (IC50)
in vitro [5] = details: human
in vitro [6] = details: human, HEK293 cells (CC50) versus K562 cells (IC50)
[7] = Cytotoxicity against imatinib resistant human IR-K562 cells assessed as cell viability at 250 nM incubated for 3 days (reference value: 79.5%); assay type: functional; details: IR-K562, 72 h, read-out: Activity
[8] = Cytotoxicity against imatinib resistant human IR-K562 cells assessed as cell viability at 250 nM incubated for 8 days (reference value: 89.4%); assay type: functional; details: IR-K562, 192 h, read-out: Activity
[9] = Cytotoxicity against imatinib resistant human IR-K562 cells assessed as cell viability at 250 nM incubated for 1 day (reference value: 73.9%); assay type: functional; details: IR-K562, 24 h, read-out: Activity
[10] = Cytotoxicity against imatinib resistant human IR-K562 cells assessed as cell viability at 250 nM incubated for 5 days (reference value: 86.7%); assay type: functional; details: IR-K562, 120 h, read-out: Activity

Chain of Histone deacetylase 2 (Q92769 whole entry): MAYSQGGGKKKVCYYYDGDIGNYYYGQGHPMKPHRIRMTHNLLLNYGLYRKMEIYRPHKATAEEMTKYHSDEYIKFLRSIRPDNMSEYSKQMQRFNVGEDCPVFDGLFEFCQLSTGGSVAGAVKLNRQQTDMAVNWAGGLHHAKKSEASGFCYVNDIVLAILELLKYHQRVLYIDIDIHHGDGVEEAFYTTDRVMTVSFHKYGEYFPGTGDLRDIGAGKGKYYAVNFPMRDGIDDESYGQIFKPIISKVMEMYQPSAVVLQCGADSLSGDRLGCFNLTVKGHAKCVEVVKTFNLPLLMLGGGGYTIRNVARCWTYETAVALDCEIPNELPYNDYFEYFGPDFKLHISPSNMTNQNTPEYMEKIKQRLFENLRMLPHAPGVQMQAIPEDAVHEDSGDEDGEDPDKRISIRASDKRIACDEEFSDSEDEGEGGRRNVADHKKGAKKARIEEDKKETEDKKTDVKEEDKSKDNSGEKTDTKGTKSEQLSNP
Chain of Histone deacetylase 4 (P56524 whole entry): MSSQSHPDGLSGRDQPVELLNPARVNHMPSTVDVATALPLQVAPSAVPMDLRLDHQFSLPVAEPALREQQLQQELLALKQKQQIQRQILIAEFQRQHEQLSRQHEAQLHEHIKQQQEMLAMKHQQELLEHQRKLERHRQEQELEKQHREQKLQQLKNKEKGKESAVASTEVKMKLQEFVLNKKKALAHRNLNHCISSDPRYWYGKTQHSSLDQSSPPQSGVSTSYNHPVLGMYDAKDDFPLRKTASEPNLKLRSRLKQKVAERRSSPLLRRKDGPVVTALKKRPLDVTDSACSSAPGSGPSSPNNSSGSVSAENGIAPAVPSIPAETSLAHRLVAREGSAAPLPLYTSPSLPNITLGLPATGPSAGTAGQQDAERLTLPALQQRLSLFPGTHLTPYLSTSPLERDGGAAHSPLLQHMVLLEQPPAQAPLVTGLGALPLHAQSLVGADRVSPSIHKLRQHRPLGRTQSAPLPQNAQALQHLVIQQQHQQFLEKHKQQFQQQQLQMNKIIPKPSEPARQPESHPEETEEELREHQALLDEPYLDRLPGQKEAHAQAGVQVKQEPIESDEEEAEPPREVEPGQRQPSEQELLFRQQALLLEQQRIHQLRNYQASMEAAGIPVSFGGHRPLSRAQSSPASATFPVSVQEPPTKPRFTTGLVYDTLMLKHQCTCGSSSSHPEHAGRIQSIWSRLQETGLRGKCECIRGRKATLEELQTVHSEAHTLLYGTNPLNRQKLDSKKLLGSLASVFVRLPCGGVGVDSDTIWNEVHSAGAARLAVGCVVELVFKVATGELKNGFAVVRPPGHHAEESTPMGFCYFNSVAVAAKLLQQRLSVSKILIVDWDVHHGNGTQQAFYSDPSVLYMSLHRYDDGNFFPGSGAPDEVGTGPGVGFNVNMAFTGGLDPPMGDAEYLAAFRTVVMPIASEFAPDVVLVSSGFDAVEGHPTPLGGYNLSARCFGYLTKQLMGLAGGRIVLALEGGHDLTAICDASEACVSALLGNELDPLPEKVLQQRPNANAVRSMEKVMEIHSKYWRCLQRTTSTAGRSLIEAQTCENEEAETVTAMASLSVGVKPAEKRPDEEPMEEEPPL
Chain of Histone deacetylase 1 (Q13547 whole entry): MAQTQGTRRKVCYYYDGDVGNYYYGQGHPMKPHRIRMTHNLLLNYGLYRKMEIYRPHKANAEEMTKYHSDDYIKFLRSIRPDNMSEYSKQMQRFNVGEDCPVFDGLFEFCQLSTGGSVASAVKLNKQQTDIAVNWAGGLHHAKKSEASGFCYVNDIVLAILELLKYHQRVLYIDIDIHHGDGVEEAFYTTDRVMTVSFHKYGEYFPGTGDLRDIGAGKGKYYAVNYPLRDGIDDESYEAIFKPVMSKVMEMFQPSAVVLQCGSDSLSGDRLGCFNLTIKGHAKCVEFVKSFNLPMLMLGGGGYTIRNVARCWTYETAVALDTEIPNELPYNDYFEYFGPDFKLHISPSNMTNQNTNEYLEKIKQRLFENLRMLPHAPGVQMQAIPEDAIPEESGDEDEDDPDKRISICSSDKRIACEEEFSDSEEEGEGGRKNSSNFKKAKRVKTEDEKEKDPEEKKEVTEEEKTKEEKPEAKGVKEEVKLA
Chain of Histone deacetylase 5 (Q9UQL6 whole entry): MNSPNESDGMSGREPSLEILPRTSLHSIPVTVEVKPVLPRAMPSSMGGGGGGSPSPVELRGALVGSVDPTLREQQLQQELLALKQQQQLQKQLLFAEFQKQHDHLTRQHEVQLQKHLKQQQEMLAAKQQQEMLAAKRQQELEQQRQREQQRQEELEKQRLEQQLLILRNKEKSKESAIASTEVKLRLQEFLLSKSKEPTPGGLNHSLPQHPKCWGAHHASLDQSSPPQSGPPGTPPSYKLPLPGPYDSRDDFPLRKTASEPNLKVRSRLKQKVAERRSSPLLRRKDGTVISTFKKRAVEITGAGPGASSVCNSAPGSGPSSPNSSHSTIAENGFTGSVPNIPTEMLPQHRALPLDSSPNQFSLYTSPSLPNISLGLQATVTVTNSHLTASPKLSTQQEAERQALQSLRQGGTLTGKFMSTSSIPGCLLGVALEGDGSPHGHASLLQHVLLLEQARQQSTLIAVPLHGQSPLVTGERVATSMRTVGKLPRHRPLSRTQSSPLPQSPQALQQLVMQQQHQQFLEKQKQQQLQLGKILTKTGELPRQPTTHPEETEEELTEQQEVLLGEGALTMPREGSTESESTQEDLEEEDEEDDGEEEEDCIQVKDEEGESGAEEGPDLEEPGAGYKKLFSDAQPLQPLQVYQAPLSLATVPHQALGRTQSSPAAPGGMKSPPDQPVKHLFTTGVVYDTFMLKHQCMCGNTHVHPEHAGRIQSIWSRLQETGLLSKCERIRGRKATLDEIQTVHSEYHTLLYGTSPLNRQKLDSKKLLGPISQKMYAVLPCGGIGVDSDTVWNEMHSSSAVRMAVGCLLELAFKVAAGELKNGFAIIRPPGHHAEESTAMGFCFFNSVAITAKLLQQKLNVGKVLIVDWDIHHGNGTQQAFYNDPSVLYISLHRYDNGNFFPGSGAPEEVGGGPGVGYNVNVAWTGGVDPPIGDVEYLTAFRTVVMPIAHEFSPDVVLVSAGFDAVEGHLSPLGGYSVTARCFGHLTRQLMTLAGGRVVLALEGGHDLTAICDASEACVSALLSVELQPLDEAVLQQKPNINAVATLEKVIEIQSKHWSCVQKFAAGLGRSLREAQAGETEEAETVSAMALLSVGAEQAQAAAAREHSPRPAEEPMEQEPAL
Chain of Histone deacetylase 9 (Q9UKV0 whole entry): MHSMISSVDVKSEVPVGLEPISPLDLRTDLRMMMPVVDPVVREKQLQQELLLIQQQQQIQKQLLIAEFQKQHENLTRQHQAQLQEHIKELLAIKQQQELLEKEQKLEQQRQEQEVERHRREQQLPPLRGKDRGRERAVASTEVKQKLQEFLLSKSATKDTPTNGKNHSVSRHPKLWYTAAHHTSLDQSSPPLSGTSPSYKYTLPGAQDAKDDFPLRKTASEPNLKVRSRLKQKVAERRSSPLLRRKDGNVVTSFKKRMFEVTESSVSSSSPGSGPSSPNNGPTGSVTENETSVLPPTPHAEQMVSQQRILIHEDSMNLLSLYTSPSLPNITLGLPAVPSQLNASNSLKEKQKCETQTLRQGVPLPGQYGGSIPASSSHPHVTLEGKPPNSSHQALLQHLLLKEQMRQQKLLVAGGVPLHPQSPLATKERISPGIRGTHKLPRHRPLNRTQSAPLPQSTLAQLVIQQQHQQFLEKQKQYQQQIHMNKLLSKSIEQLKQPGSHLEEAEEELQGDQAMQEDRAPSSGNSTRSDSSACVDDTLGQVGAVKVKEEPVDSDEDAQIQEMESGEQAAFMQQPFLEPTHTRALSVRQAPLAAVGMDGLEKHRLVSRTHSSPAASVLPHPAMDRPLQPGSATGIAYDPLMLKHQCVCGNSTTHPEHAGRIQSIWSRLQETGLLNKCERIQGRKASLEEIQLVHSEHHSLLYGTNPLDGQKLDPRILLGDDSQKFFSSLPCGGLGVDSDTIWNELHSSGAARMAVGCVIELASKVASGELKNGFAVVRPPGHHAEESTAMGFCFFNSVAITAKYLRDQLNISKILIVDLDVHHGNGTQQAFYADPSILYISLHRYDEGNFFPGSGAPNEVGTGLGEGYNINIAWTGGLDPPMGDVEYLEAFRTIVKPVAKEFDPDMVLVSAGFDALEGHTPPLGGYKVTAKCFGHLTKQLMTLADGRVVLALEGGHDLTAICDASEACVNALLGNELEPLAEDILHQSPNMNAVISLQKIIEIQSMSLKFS

Structure (SMILES) | IC50 (Histone deacetylase 9) [µM] | IC50 [1] [µM] | IC50 (Histone deacetylase 4) [µM] | IC50 (Histone deacetylase 5) [µM] | IC50 (cells) [µM] | IC50 (Histone deacetylase 8) [µM] | IC50 (U-937) [µM] | IC50 (Histone deacetylase 1) [µM] | IC50 (K562) [µM] | IC50 (Histone deacetylase 2) [µM] | IC50 (THP-1) [µM] | CC50 [2] [µM] | selectivity ratio (in vitro [3]) | selectivity ratio (in vitro [4]) | selectivity ratio (in vitro [5]) | selectivity ratio (in vitro [6]) | viability at […] [7] [%] | viability at […] [8] [%] | viability at […] [9] [%] | viability at […] [10] [%]
C[C@@H](NC(=O)c1cccc(=S)n1O)C(=O)O | 58 | 4.2 | 100 | 37 | 18 | 0.98 | 25 | 270 | 3.7 | 400 | 2.2 |  |  |  |  |  |  |  |  | 
O=C(N[C@@H](C(=O)O)c1ccccc1)c1cccc(=S)n1O | 34 | 8.8 | 64 | 27 | 24 | 1.2 | 57 | 93 | 8.7 | 95 | 6.4 | 76 |  |  |  |  |  |  |  | 
O=C(O)c1cccc(=S)n1O | 47 | 0.15 | 71 | 35 | 52 | 3.3 | 75 | 43 | 18 | 710 | 25 | 97 |  |  |  |  |  |  |  | 
Cc1nc(Nc2ncc(C(=O)Nc3c(C)cccc3Cl)s2)cc(N2CCN(CCO)CC2)n1 [DASATINIB] |  |  |  |  | 1.9 |  |  |  | 0.08 |  | 6 | 16 | 2.6 | < 0.1 | 8.4 | 200 |  |  |  | 
Cc1ccc(NC(=O)c2ccc(CN3CCN(C)CC3)cc2)cc1Nc1nccc(-c2cccnc2)n1 [IMATINIB] |  |  |  |  | 1.1 |  | 19 |  | 0.06 |  | 25 | 8.4 | 0.34 | 0.44 | 7.6 | 140 | 58.7 | 71.1 | 47 | 65.1
O=C(CCCCCCC(=O)Nc1ccccc1)NO [VORINOSTAT] |  |  |  |  |  |  |  |  |  |  |  | 100 |  |  |  |  |  |  |  | 
